The record followed here is PubChem BioAssay AID1745844 (Carcinogenic Potency Database (CPDB), 2022).

Molecules are shown by their SMILES. The source made the active and inactive calls. How the calls were made is not given here.

The subject of the series is rodent lifetime carcinogenesis bioassay, tumor incidence TD50. The series is described as follows: chronic cancer bioassays in animals – CPDB, compiled studies (AID 1745844).

`CC(Cl)(Cl)Cl`: the TD50 (in general, the dose at which the toxic effect under study appears in half of the subjects) is 260000 mg/kg/day (mouse, strain B6C3F1, females, by gavage, site: lung, lesion: alveolar/bronchiolar adenoma + alveolar/bronchiolar carcinoma, dosed 78 weeks, study length 90 weeks); 30500 mg/kg/day (mouse, strain B6C3F1, males, by gavage, site: any site (literature study), lesion: several types, types named in the paper, dosed 78 weeks, study length 90 weeks); 39700 mg/kg/day (mouse, strain B6C3F1, males, by gavage, site: liver, lesion: hepatocellular adenoma + hepatocellular carcinoma + neoplastic nodule, dosed 78 weeks, study length 90 weeks); 5.08e+06 mg/kg/day (mouse, strain B6C3F1, males, by gavage, site: lung, lesion: alveolar/bronchiolar adenoma + alveolar/bronchiolar carcinoma, dosed 78 weeks, study length 90 weeks); 66300 mg/kg/day (inactive) (mouse, strain B6C3F1, males, inhaled, site: liver, lesion: hepatocellular carcinoma, dosed 104 weeks, study length 104 weeks); 2070 mg/kg/day (inactive) (rat, strain Fischer 344, males, inhaled, site: liver, lesion: hepatocellular carcinoma, dosed 104 weeks, study length 104 weeks). Further, the TD50 by setting is: (rat, strain Fischer 344, males, inhaled, site: liver, lesion: neoplastic nodule, dosed 104 weeks, study length 104 weeks) 5120 mg/kg/day (inactive); (rat, strain Osborne-Mendel, females, by gavage, site: any site (literature study), lesion: several types, types named in the paper, dosed 78 weeks, study length 112 weeks) 226 mg/kg/day; (rat, strain Osborne-Mendel, males, by gavage, site: any site (literature study), lesion: several types, types named in the paper, dosed 78 weeks, study length 106 weeks) 950 mg/kg/day. Also, the carcinogen call was “negative (inactive)” (mouse, strain B6C3F1, females, inhaled, site: liver, lesion: hepatocellular adenoma, dosed 104 weeks, study length 104 weeks); “negative (inactive)” (mouse, strain B6C3F1, females, inhaled, site: liver, lesion: hepatocellular carcinoma, dosed 104 weeks, study length 104 weeks); “negative (inactive)” (mouse, strain B6C3F1, females, inhaled, site: liver, lesion: several types, types named in the paper, dosed 104 weeks, study length 104 weeks); “negative (inactive)” (mouse, strain B6C3F1, males, inhaled, site: liver, lesion: hepatocellular adenoma, dosed 104 weeks, study length 104 weeks); “negative (inactive)” (mouse, strain B6C3F1, males, inhaled, site: liver, lesion: several types, types named in the paper, dosed 104 weeks, study length 104 weeks); “negative (inactive)” (rat, strain Fischer 344, females, inhaled, site: liver, lesion: hepatocellular carcinoma, dosed 104 weeks, study length 104 weeks). Moreover, the carcinogen call (rat, strain Fischer 344, females, inhaled, site: liver, lesion: neoplastic nodule, dosed 104 weeks, study length 104 weeks) is “negative (inactive)”.
`CNCCc1ccc(OC(=O)C(C)C)c(OC(=O)C(C)C)c1`: the carcinogen call is “negative (inactive)” (rat, strain Charles River CD (Sprague-Dawley), females, by gavage, site: adrenal gland, lesion: cortical adenoma, dosed 104 weeks, study length 104 weeks); “negative (inactive)” (rat, strain Charles River CD (Sprague-Dawley), females, by gavage, site: adrenal gland, lesion: pheochromocytoma, malignant, dosed 104 weeks, study length 104 weeks); “negative (inactive)” (rat, strain Charles River CD (Sprague-Dawley), females, by gavage, site: mammary gland, lesion: adenocarcinoma, dosed 104 weeks, study length 104 weeks); “negative (inactive)” (rat, strain Charles River CD (Sprague-Dawley), females, by gavage, site: mammary gland, lesion: adenoma, dosed 104 weeks, study length 104 weeks); “negative (inactive)” (rat, strain Charles River CD (Sprague-Dawley), females, by gavage, site: pituitary gland, lesion: adenoma, dosed 104 weeks, study length 104 weeks); “negative (inactive)” (rat, strain Charles River CD (Sprague-Dawley), males, by gavage, site: adrenal gland, lesion: cortical adenoma, dosed 104 weeks, study length 104 weeks). Also, the carcinogen call (rat, strain Charles River CD (Sprague-Dawley), males, by gavage, site: adrenal gland, lesion: pheochromocytoma, malignant, dosed 104 weeks, study length 104 weeks) was “negative (inactive)”. Moreover, the TD50 (rat, strain Charles River CD (Sprague-Dawley), males, by gavage, site: pituitary gland, lesion: adenoma, dosed 104 weeks, study length 104 weeks) was 30.2 mg/kg/day (inactive).
Regarding `N=c1ccn2c(n1)O[C@H]1[C@H](O)[C@@H](CO)O[C@H]12`, the carcinogen call is “negative (inactive)” (rat, strain Wistar, females, i.p., site: any site (literature study), lesion: one or several types, types not named, dosed 52 weeks, study length 52 weeks); “negative (inactive)” (rat, strain Wistar, females, i.p., site: any site (literature study), lesion: several types, types named in the paper, dosed 104 weeks, study length 104 weeks); “negative (inactive)” (rat, strain Wistar, males, i.p., site: any site (literature study), lesion: one or several types, types not named, dosed 52 weeks, study length 52 weeks); “negative (inactive)” (rat, strain Wistar, males, i.p., site: any site (literature study), lesion: several types, types named in the paper, dosed 104 weeks, study length 104 weeks).
Regarding `COP(=O)(OC)OC`, the TD50 is 385 mg/kg/day (mouse, strain B6C3F1, females, by gavage, site: any site (literature study), lesion: several types, types named in the paper, dosed 103 weeks, study length 103 weeks); 6390 mg/kg/day (mouse, strain B6C3F1, females, by gavage, site: liver, lesion: hepatocellular adenoma + hepatocellular carcinoma + neoplastic nodule, dosed 103 weeks, study length 103 weeks); 3900 mg/kg/day (mouse, strain B6C3F1, females, by gavage, site: lung, lesion: alveolar/bronchiolar adenoma + alveolar/bronchiolar carcinoma, dosed 103 weeks, study length 103 weeks); 335 mg/kg/day (mouse, strain B6C3F1, females, by gavage, site: uterus, endometrium, lesion: adenocarcinoma, NOS, dosed 103 weeks, study length 103 weeks); 61300 mg/kg/day (mouse, strain B6C3F1, males, by gavage, site: lung, lesion: alveolar/bronchiolar adenoma + alveolar/bronchiolar carcinoma, dosed 103 weeks, study length 103 weeks); 73 mg/kg/day (inactive) (rat, strain Fischer 344, females, by gavage, site: any site (literature study), lesion: several types, types named in the paper, dosed 104 weeks, study length 105 weeks). Besides, the TD50 (rat, strain Fischer 344, males, by gavage, site: any site (literature study), lesion: several types, types named in the paper, dosed 104 weeks, study length 105 weeks) came to 54.5 mg/kg/day; the TD50 (rat, strain Fischer 344, males, by gavage, site: liver, lesion: hepatocellular adenoma + hepatocellular carcinoma + neoplastic nodule, dosed 104 weeks, study length 105 weeks) is 485 mg/kg/day; the TD50 (rat, strain Fischer 344, males, by gavage, site: subcutaneous tissue, lesion: fibroma, dosed 104 weeks, study length 105 weeks) was 123 mg/kg/day. Also, the carcinogen call (mouse, strain B6C3F1, males, by gavage, site: any site (literature study), lesion: several types, types named in the paper, dosed 103 weeks, study length 103 weeks) is “negative (inactive)”; the carcinogen call (rat, strain BOR:WISW (Wistar), females, in drinking water, site: any site (literature study), lesion: one or several types, types not named, dosed 52 weeks, study length 52 weeks) is “negative (inactive)”; the carcinogen call (rat, strain BOR:WISW (Wistar), females, in drinking water, site: any site (literature study), lesion: several types, types named in the paper, dosed 118 weeks, study length 128 weeks) is “negative (inactive)”; the carcinogen call (rat, strain BOR:WISW (Wistar), females, in drinking water, site: liver, lesion: hepatoma, dosed 118 weeks, study length 128 weeks) was “negative (inactive)”; the carcinogen call (rat, strain BOR:WISW (Wistar), males, in drinking water, site: any site (literature study), lesion: one or several types, types not named, dosed 52 weeks, study length 52 weeks) was “negative (inactive)”; the carcinogen call (rat, strain BOR:WISW (Wistar), males, in drinking water, site: any site (literature study), lesion: several types, types named in the paper, dosed 118 weeks, study length 128 weeks) is “negative (inactive)”. Further, for the setting “rat, strain BOR:WISW (Wistar), males, in drinking water, site: liver, lesion: hepatoma, dosed 118 weeks, study length 128 weeks”, the carcinogen call is “negative (inactive)”.
For the molecule `C[C@H]1CCCC(=O)CCC/C=C/c2cc(O)cc(O)c2C(=O)O1`, the TD50 reads like this: (mouse, strain B6C3F1, females, in feed, site: any site (literature study), lesion: several types, types named in the paper, dosed 104 weeks, study length 105 weeks) 17.9 mg/kg/day; (mouse, strain B6C3F1, females, in feed, site: liver + pituitary gland, lesion: hepatocellular adenoma + hepatocellular carcinoma + adenoma, NOS + carcinoma, dosed 104 weeks, study length 105 weeks) 22 mg/kg/day; (mouse, strain B6C3F1, females, in feed, site: liver, lesion: hepatocellular adenoma + hepatocellular carcinoma + neoplastic nodule, dosed 104 weeks, study length 105 weeks) 38.8 mg/kg/day; (mouse, strain B6C3F1, females, in feed, site: liver, lesion: hepatocellular adenoma + hepatocellular carcinoma, dosed 104 weeks, study length 105 weeks) 38.8 mg/kg/day; (mouse, strain B6C3F1, females, in feed, site: liver, lesion: hepatocellular adenoma, dosed 104 weeks, study length 105 weeks) 50.1 mg/kg/day; (mouse, strain B6C3F1, females, in feed, site: pituitary gland, lesion: adenoma, NOS + carcinoma, dosed 104 weeks, study length 105 weeks) 32.3 mg/kg/day. For the same molecule, the TD50 by setting is: (mouse, strain B6C3F1, females, in feed, site: pituitary gland, lesion: adenoma, NOS, dosed 104 weeks, study length 105 weeks) 37.4 mg/kg/day; (mouse, strain B6C3F1, males, in feed, site: pituitary gland, lesion: adenoma + carcinoma, dosed 104 weeks, study length 105 weeks) 49.1 mg/kg/day; (mouse, strain B6C3F1, males, in feed, site: pituitary gland, lesion: adenoma, dosed 104 weeks, study length 105 weeks) 53.3 mg/kg/day; (rat, strain Fischer 344, females, in feed, site: any site (literature study), lesion: several types, types named in the paper, dosed 104 weeks, study length 104 weeks) 80.9 mg/kg/day (inactive); (rat, strain Fischer 344, females, in feed, site: liver, lesion: hepatocellular adenoma + hepatocellular carcinoma + neoplastic nodule, dosed 104 weeks, study length 104 weeks) 33.5 mg/kg/day; (rat, strain Fischer 344, males, in feed, site: any site (literature study), lesion: several types, types named in the paper, dosed 104 weeks, study length 104 weeks) 16.2 mg/kg/day (inactive). Besides, where the note is “rat, strain Fischer 344, males, in feed, site: liver, lesion: hepatocellular adenoma + hepatocellular carcinoma + neoplastic nodule, dosed 104 weeks, study length 104 weeks”, the TD50 stood at 950 mg/kg/day.
